Our source for the IC50 values is patent publication US20110105430A1, “PYRROLO [2,3-C] PYRIDINE DERIVATIVES AS P38 KINEASE INHIBITING AGENTS” (priority 2008, published 2011).

For experiment [1], the target named is T1, p38α (Homo sapiens, UniProt Q16539).
T1 construct: purchased Millipore
The experiment is described as follows: p38 kinase assay, p38-α with peptide substrate (Caliper LabChip). It is filed as biochemical. On the procedure:
Alternatively, p38 kinase assays were performed in a reaction volume of 70 μL in a 384-well plate, at 30° for […] under the following conditions: 50 mM Hepes, pH 7.4, 10 mM MgCl2, 1 mg/ml FA Free BSA, 1 mM DTT, 10 μM ATP, 10 μM p38 peptide [Caliper Life Sciences FL-Peptide 8 (5-FAM-IPTSPITTTYFFFKKK-COOH)] and 5.7 nM p38-α (Millipore), or 14.3 nM unactivated MAPKAP kinase-2, 0.18 nM p38-α (Millipore) and 2 uM RSK peptide [Caliper Life Sciences FL-Peptide 11 (5-FAM-KKLNRTLSVA-COOH)]. Serial dilutions of compounds were added to each reaction in 700 nL DMSO. 700 nL of DMSO was added to the control wells of the reaction plate as the no inhibitor control for each inhibitor titration. The reaction was terminated by the addition of 15 μL of a 100 mM EDTA. Product formation was analyzed using the Caliper LabChip 3000. The Separation buffer contained 100 mM HEPES pH 7.5, 0.015% Brij-35, 2.5% Coating Reagent #3 (Caliper Life Sciences) and 10 mM EDTA. Calculation of the substrate product ratios are performed using the HTS Well Analyzer software provided by Caliper Life Sciences and the percent inhibition at each compound concentration is determined.

The test system of experiment [2] is TNF-α. The experiment is described as follows: IC50 hWB (TNF-α release assay). It is filed as cell-based. Conditions: Homo sapiens. The protocol:
Blood was obtained from healthy volunteers by venipuncture using sodium heparin as an anti-coagulant. Peripheral blood mononuclear cells (PBMCs) were isolated using Lymphocyte Separation Medium (ICN) according to manufacturers specifications. Isolated PBMCs were washed 3 times with FIBSS and diluted to a density of 2×10^6 cells/mL in RPMI+5% autologous human serum. 50 μL of the serial dilutions of inhibitor were added to wells of a 96-well tissue culture plate followed by addition of 100 μL of PBMCs and then 50 μL of RPMI complete medium containing 400 ng/mL LPS. A control well of cells without compound but with LPS (maximal stimulation control) and one without compound and without LPS (background control) were included in each titration. The cells were incubated for 16 hours in a humidified incubator at 37° C., 5% CO2. Supernatants were then harvested and TNF-α levels were quantified by immunoassay using commercial reagents (R&D, Inc).

T1 sequence (Q16539 whole entry): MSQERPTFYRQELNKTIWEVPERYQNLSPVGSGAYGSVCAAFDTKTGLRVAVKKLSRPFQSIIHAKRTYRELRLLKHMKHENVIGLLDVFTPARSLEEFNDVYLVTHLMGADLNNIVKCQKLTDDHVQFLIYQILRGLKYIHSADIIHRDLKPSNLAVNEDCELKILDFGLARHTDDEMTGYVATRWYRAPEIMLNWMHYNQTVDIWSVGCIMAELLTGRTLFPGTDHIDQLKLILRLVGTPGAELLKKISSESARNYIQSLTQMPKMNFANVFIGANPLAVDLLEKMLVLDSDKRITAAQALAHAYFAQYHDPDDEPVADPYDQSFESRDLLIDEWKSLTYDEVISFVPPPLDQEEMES

On to `O=C(c1c(F)cc(F)cc1F)c1c[nH]c2c(=O)n(Cc3nc4cc(C(F)(F)F)cnc4[nH]3)ccc12` [Example 19, 3-(2,4,6-trifluorobenzoyl)-6-{[6-(trifluoromethyl)-3H-imidazo[4,5-b]pyridin-2-yl]methyl}-1,6-dihydro-7H-pyrrolo[2,3-c]pyridin-7-one], for which the IC50 – broadly, the concentration needed to halve the response being measured – in experiment [1] amounted to 31 nM; in experiment [2], 365 nM.

For `O=C(c1c(F)cc(F)cc1F)c1c[nH]c2c(=O)n(Cc3cn4ccc(C(F)(F)F)cc4n3)ccc12` [Example 18, 3-(2,4,6-trifluorobenzoyl)-6-{[(7-trifluoromethyl)imidazo[1,2-c]pyridin-2-yl]methyl}-1,6-dihydro-7H-pyrrolo[2,3-c]pyridin-7-one], the values for the IC50 in experiment [1] and in experiment [2] were 12 nM and 201 nM, respectively.

Regarding `Cc1cc(F)c(C(=O)c2c[nH]c3c(=O)n(Cc4cc5ccccn5n4)ccc23)c(F)c1` [Example 14, 3-(2,6-difluoro-4-methylbenzoyl)-6-(pyrazolo[1,5-a]pyridin-2-ylmethyl)-1,6-dihydro-7H-pyrrolo[2,3-c]pyridin-7-one], the 50% inhibitory concentration (IC50) in experiment [1] was 22 nM; in experiment [2], 486 nM.
